Assay results taken from publication PMC10227015, “From a drug repositioning to a structure-based drug design approach to tackle acute lymphoblastic leukemia” (Nature Communications, 2023).

What was measured:
dCK-C3S-S74E [1] = assay: Enzymatic assay (PK/LDH coupled), dC phosphorylation by dCK in the presence of UTP; format: biochemical, human; settings: presence of UTP
Procedure: (§1) For enzymatic assays, cells were re-suspended in 20 mM TRIS, pH 8 500 mM NaCl, 0.1% BRIJ-35 and 5% glycerol buffer and one EDTA free anti-protease tablet was added (Roche). After sonication and centrifugation (30,000 × g), the supernatant was loaded on a 5 ml HisTrap FF column (GE healthcare) pre-equilibrated with 20 mM TRIS, pH 8, 500 mM NaCl, 0.01% BRIJ-35 and 5% glycerol buffer. The protein was then eluted by the same buffer containing 250 mM imidazole after a wash containing 25 mM imidazole. The eluted fraction was applied on a HiPrep 26/10 desalting column (GE healthcare) pre-equilibrated with 20 mM TRIS, pH 8, 500 mM NaCl, 5% glycerol and 0.01% BRIJ-35 buffer. Finally, protein in a 20% glycerol buffer was flash frozen in liquid nitrogen and stored at −80 °C.
Kinetic analyses were performed using a spectrophotometric continuous enzymatic-coupled assay using pyruvate kinase (PK) and lactate dehydrogenase (LDH). […] UTP is the physiological dCK-phosphate donor[46] and it was used to determine activation versus inhibition behavior. ATP was used to calculate IC50 values, as it allows the analysis of a dose response curve. The PK/LDH coupled assay is based on the conversion of phosphoenolpyruvate (PEP) and UDP/ADP to pyruvate and UTP/ATP by PK and the subsequent conversion of pyruvate to lactate by LDH. The latter step requires NADH, which is oxidized to NAD^+. NADH is fluorescent (excitation at 337 nm and emission at 460 nm), but not NAD^+. Thus, the measurement of fluorescent decrease at 460 nm is a measure of kinase activity. dCK experiments were performed in a buffer containing 50 mM HEPES, pH 7.5, 5 mM MgCl2, 1 mM DTT, and 100 mM KCl. Buffer was supplemented with PK (0.01 U/µl), LDH (0.02 U/µl), PEP (1 mM), NADH (300 µM) and compounds at varying concentrations. For UTP assays, protein concentration was 2 μM, substrate 200 µM (dC), and UTP 1 mM. For ATP assays, protein concentration was 100 nM (and 50 nM when indicated), substrate 100 µM (dC), and ATP 1 mM. All measurements were performed on a microplate reader Pherastar FS (BMG Labtech). All assays were performed in triplicate and each experiment was performed at least twice. The data are presented as mean ± SD. The results were plotted as kinetics and the velocity was determined for each condition as the slope of the linear range of the curve. For each compound concentration, the velocity of the reaction (according to V = d[P]/dt) was normalized with respect to the drug free control and velocity ratios were compared. IC50 values corresponding to enzymatic inhibition in ATP were calculated by nonlinear regression curves using GraphPad Prism software 9.4.0.

dCK-C3S-S74E [2] = assay: Enzymatic assay (PK/LDH coupled), dC phosphorylation by dCK in the presence of ATP; format: biochemical, human; settings: presence of ATP, [dCK] = 100 nM; read-out: ENZYMATIC ASSAY IC50
Procedure: as §1
Kinetic analyses were performed using a spectrophotometric continuous enzymatic-coupled assay using pyruvate kinase (PK) and lactate dehydrogenase (LDH). Analysis of the effect of compounds on dCK-C3S-S74E activity was performed using dC as substrate and UTP/ATP as phosphate donors. UTP is the physiological dCK-phosphate donor[46] and it was used to determine activation versus inhibition behavior. ATP was used to calculate IC50 values, as it allows the analysis of a dose response curve. The PK/LDH coupled assay is based on the conversion of phosphoenolpyruvate (PEP) and UDP/ADP to pyruvate and UTP/ATP by PK and the subsequent conversion of pyruvate to lactate by LDH. The latter step requires NADH, which is oxidized to NAD^+. NADH is fluorescent (excitation at 337 nm and emission at 460 nm), but not NAD^+. Thus, the measurement of fluorescent decrease at 460 nm is a measure of kinase activity. dCK experiments were performed in a buffer containing 50 mM HEPES, pH 7.5, 5 mM MgCl2, 1 mM DTT, and 100 mM KCl. Buffer was supplemented with PK (0.01 U/µl), LDH (0.02 U/µl), PEP (1 mM), NADH (300 µM) and compounds at varying concentrations. For UTP assays, protein concentration was 2 μM, substrate 200 µM (dC), and UTP 1 mM. For ATP assays, protein concentration was 100 nM (and 50 nM when indicated), substrate 100 µM (dC), and ATP 1 mM. All measurements were performed on a microplate reader Pherastar FS (BMG Labtech). All assays were performed in triplicate and each experiment was performed at least twice. The data are presented as mean ± SD. The results were plotted as kinetics and the velocity was determined for each condition as the slope of the linear range of the curve. For each compound concentration, the velocity of the reaction (according to V = d[P]/dt) was normalized with respect to the drug free control and velocity ratios were compared. IC50 values corresponding to enzymatic inhibition in ATP were calculated by nonlinear regression curves using GraphPad Prism software 9.4.0.

CCRF-CEM cell line = assay: dCK cellular assay: CCRF-CEM proliferation in the presence of dT and dC; format: cell-based, human; settings: Homo sapiens, read-out: dCK CELLULAR ASSAY IC50 (nM); CCRF-CEM, 200 µM dT and 1 µM dC; read-out: dCK […] ASSAY IC50
Procedure: The dCK cellular assay was set up to assess the ability to inhibit dCK activity in a cellular model. The model was developed with a T-cell acute lymphoblastic leukemia cell line (CCRF-CEM), because of its high dependence on the SP, thus on dCK activity. Cellular assays were performed to assess the inhibition of cell proliferation under two conditions: (i) in the presence of the compound alone to determine the nonspecific effect on cells, independent of dCK (nonspecific toxicity) and (ii) in the presence of an inhibitor of the DNP to determine the ability of compounds to inhibit dCK and decrease tumor proliferation (activity on dCK). The inhibitor of the DNP chosen for the experiments was thymidine (dT), a physiological inhibitor of ribonucleotide reductase which arrests cell proliferation in phase S. The dTTP produced via thymidine kinase from dT acts as a RNR inhibitor by an allosteric regulation of the R1 subunit. The addition of the nucleoside deoxycytidine (dC) in the medium allows the rescue of cell proliferation by passing only through the salvage pathway, mediated by dCK. dC needs to be added exogenously to mimic physiological concentrations because it is not present in the cell culture medium, on the contrary to mouse model, in which it is naturally present in the serum. Therefore, cell proliferation under these conditions (+dT +dC) is dCK dependent and it is possible to determine the IC50 of dCK inhibitors on the inhibition of cell proliferation. Results are expressed as % cell proliferation relative to the control with DMSO.
The amount of reduced dye formed by metabolically active cells was quantified by its fluorescence measured at 560 nm (excitation) and 590 nm (emission) in a microplate reader (CLARIOstar, BMG Labtech). A blank well without cells was used as a background control. Each experiment was performed at least three times (with technical triplicates) and data are presented as the mean ± SD.

dCK-C3S-S74E [3] = assay: Thermal shift assay (TSA); settings: mean ± SD
Description: BL21 pRIL Escherichia coli cells were transformed with dCK-plasmids (dCK-C4S-S74E (for crystallization assays) and dCK-C3S-S74E (for TSA, enzymatic and ITC assays)). […] Protein dCK-C3S-S74E used for other assays contained only three mutated cysteines. The S74E mutation mimics the phosphorylated state of this serine, which favors the open conformation of the enzyme, making it competent for nucleoside binding[45] to evaluate the binding affinity with compounds.
For binding assays (TSA, ITC and crystallography) cells were re-suspended in 50 mM TRIS, pH 8, 500 mM NaCl, 30 mM imidazole and 10% glycerol buffer and one EDTA free anti-protease tablet was added (Roche). After sonication and centrifugation (30,000 × g), the supernatant was loaded on a 5 ml HisTrap FF column (GE healthcare) pre-equilibrated with resuspension buffer. Protein was then eluted by resuspension buffer containing 500 mM imidazole. Protein eluted fractions were mixed and concentrated. Protein was further purified by size exclusion chromatography (superdex 200 16/600, GE healthcare) in 20 mM HEPES, pH 7.5, and 200 mM NaCl before concentration to 30 mg/ml and storage at −80 °C.
Thermal shift assay (TSA) experiments were performed in 384-well PCR white plates in the assay buffer containing 20 mM HEPES, pH 7.5 and 200 mM NaCl. […] Plates were centrifuged at 200 × g for 2 min at 4 °C. […] Raw fluorescence data were treated, and the melting temperatures (Tm) were calculated using CFX Manager 3.1 software (Bio-Rad). ΔTm represents the difference in Tm between the protein in the presence of compound and the protein alone (both at 2% DMSO). Each experiment was performed at least twice (with technical triplicates) and data are presented as the mean ± SD.

dCK-C3S-S74E, sequence (P27707 whole entry S74E, form open): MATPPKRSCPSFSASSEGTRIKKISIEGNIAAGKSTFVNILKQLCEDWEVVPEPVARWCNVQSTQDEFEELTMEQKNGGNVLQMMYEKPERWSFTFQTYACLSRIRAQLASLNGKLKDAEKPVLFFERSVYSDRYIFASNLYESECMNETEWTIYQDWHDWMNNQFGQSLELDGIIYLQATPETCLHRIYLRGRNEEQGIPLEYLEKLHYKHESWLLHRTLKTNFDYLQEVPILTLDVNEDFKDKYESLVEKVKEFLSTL

Row | SMILES | ENZYMATIC ASSAY (Activation/Inhibition) (dCK-C3S-S74E [1]) | IC50 (dCK-C3S-S74E [2]) [µM] | IC50 (CCRF-CEM cell line) [nM] | THERMAL SHIFT ASSAY +Tm (°) (dCK-C3S-S74E [3])
1 | CCCN(c1nc(-c2nccc(N)n2)cs1)c1cc(NC(=O)c2ccc(CN3CCN(C)CC3)cc2)ccc1C [OR0105] | I | 2.14 ± 0.049 | 1620 ± 254 | 14.5 ± 0.2
2 | Cc1ccc(NC(=O)c2ccc(CCN3CCN(C)CC3)cc2)cc1Nc1nc(-c2nccc(N)n2)cs1 [OR0146] | A/I | 3.46 ± 0.349 | 14600 ± 1190 | 14.8 ± 0.4
3 | Cc1ccc(C#Cc2ccc(CN3CCN(C)CC3)cc2)cc1Nc1nc(-c2nccc(N)n2)cs1 [OR0153] | A/I | 2.04 ± 0.684 | 2180 ± 388 | 16.9 ± 0.4
4 | Cc1ccc(NC(=O)c2ccc(CN(C)C)cc2)cc1Nc1nc(-c2nccc(N)n2)cs1 [OR0155] | A/I | 7.78 ± 2.33 | 13800 ± 394 | 10.9 ± 0.4
5 | Cc1ccc(NC(=O)c2ccc(CN3CC4(CN(C)C4)C3)cc2)cc1Nc1nc(-c2nccc(N)n2)cs1 [OR0156] | A/I | 6.38 ± 2.08 | > 40000 | 12.6 ± 0.1
6 | Cc1ccc(OCc2ccc(CN3CCN(C)CC3)cc2)cc1Nc1nc(-c2nccc(N)n2)cs1 [OR0232] | A/I | 1.94 ± 0.529 | 3460 ± 638 | 15.2 ± 0.0
7 | Cc1ccc(C#Cc2ccc(CN(C)C)cc2)cc1Nc1nc(-c2nccc(N)n2)cs1 [OR0237] | A/I | 2.14 ± 0.387 | 3340 ± 1450 | 15.3 ± 0.5
8 | Cc1ccc(NC(=O)c2ccc(CN3CCN(C)CC3)cc2)cc1Nc1nc(-c2ncc(F)c(N)n2)cs1 [OR0239] | A/I | 3.35 ± 1.07 | 14800 ± 1580 | 14.3 ± 0.4
9 | Cc1ccc(NC(=O)c2ccc(CN3CCN(C)CC3)s2)cc1Nc1nc(-c2nccc(N)n2)cs1 [OR0241] | A/I | 3.77 ± 2.19 | 14200 ± 1160 | 13.5 ± 0.0
10 | CN1CCN(Cc2ccc(C(=O)Nc3ccc4c(c3)N(c3nc(-c5nccc(N)n5)cs3)CCCC4)cc2)CC1 [OR0289] | A/I | 3.4 ± 0.564 | 3920 ± 461 | 15.9 ± 0.5
